# Data as given in patent publication US11779576B2, “Method of treating C3 glomerulopathy” (CHEMOCENTRYX, INC., priority 2016, dated 2023).
# “Also recorded” adds a separate entry of the source.
# Experiments:
# [1] = test system: patient with progressive complement 3 glomerulonephritis (recurrent C3GN in a renal transplant); assay: Study of compound 1 in a patient with progressive C3 glomerulonephritis: eGFR, proteinuria, clinical condition; format: in vivo, human
# From the text: Under the Special Needs program in the United Kingdom (which is similar to a compassionate use protocol in the US), a C3 glomerulonephritis patient received treatment with the orally administered complement inhibitor compound 1, following the protocol detailed below. The patient had refractory disease despite a kidney transplant and prior treatment with the broadly immunosuppressive drugs rituximab, cyclophosphamide, mycophenolate mofetil, tacrolimus, and steroids. Renal allograft biopsies were taken pre-dose, 2 and 7 months during therapy. The primary efficacy objective is to evaluate the efficacy of compound 1 based on change from baseline in eGFR (MDRD, Estimated Glomerular Filtration Rate) and proteinuria. The patient will have biopsy proven recurrent […] prior to start of dosing, and be deemed eligible based on the inclusion and exclusion criteria. Screening procedures will include recording of demographics, medical history, medication history, physical examination and vital signs, serum chemistry, hematology, urinalysis (including UPCR measurement), viral screening (if not performed within prior 12 weeks), and estimated glomerular filtration rate (eGFR) assessment based on serum creatinine. The baseline eGFR needs to be at least 25 mL/min/1.73 m^2 for study eligibility. On Day 1, the patient will start compound 1 treatment. Patients will take compound 1 30 mg orally twice daily for an initial period of 84 days. The patient will visit the study center on Days 1, 8, 15, 29, 57, and 85. The compound 1 dose will be taken in the morning optimally within one hour after breakfast and in the evening optimally within one hour after dinner. If the patient's clinical condition stabilizes or improves, and there are no adverse events preventing further treatment, the patient may be treated for another 84-day treatment cycle. The 84-day cycles may be repeated for a total of up to 4 cycles under this protocol. For the 84-day cycles after the first cycle, the patient will visit the study center every 4 weeks. There will be 4-week follow-up period after the patient stops the compound 1 treatment. Efficacy Assessments Include: • 1. First morning urinary PCR; • 2. eGFR by Modification of Diet in Renal Disease (MDRD) formula based on serum creatinine; • 3. Plasma and urine pharmacodynamic markers, e.g., MCP-1, C3a, C5a, properdin, and sC5b-9; • 4. Glomerular inflammation (e.g., crescents, inflammatory cell infiltrate, endocapillary proliferation) and C3 deposition in a follow-up renal biopsy sample; Pharmacokinetic Assessments
# [2] = test system: glomeruli of renal allograft of C3 glomerulonephritis patient; assay: Renal allograft biopsies (histology, immunofluorescence, CD68 staining) pre-dose and at 2 and 7 months of compound 1 therapy; format: in vivo, human; conditions: for Endocapillary hypercellularity/total: pre-treatment 3/11; for CD68-positive cells/glomerulus: pre-treatment 11; for Immunoflourescence microscopy, IgM: pre-treatment trace; for glomerular inflammation: after treatment, PAS staining (FIG. 2)
# From the text: Under the Special Needs program in the United Kingdom (which is similar to a compassionate use protocol in the US), a C3 glomerulonephritis patient received treatment with the orally administered complement inhibitor compound 1, following the protocol detailed below. The patient had refractory disease despite a kidney transplant and prior treatment with the broadly immunosuppressive drugs rituximab, cyclophosphamide, mycophenolate mofetil, tacrolimus, and steroids. Renal allograft biopsies were taken pre-dose, 2 and 7 months during therapy. […] Protocol of the Study Aim Efficacy Assessments Include: • 1. First morning urinary PCR; • 2. eGFR by Modification of Diet in Renal Disease (MDRD) formula based on serum creatinine; • 3. Plasma and urine pharmacodynamic markers, e.g., MCP-1, C3a, C5a, properdin, and sC5b-9; • 4. Glomerular inflammation (e.g., crescents, inflammatory cell infiltrate, endocapillary proliferation) and C3 deposition in a follow-up renal biopsy sample; Pharmacokinetic Assessments Renal biopsies will be analyzed by periodic acid—Schiff (PAS) staining, immunofluorescence staining for C3, C5b-9, and potentially other markers. Electron microscopy may also be performed.
structure (smiles),measurement,setting,value
Cc1ccc(NC(=O)[C@H]2CCCN(C(=O)c3c(C)cccc3F)[C@H]2c2ccc(NC3CCCC3)cc2)cc1C(F)(F)F [compound 1],patient's condition in response to treatment,"[1]; C3 glomerulonephritis patient, refractory disease after kidney transplant, compound 1 30 mg orally twice daily",improved
same,eGFR decline,[1]; after 1 month of treatment (FIG. 1),attenuated
same,eGFR,[1]; during compound 1 treatment,stabilized
same,eGFR decline,"[1]; eGFR 83 mL/min/1.73 m^2 14 months prior, 46 mL/min/1.73 m^2 at start of treatment",attenuated or stopped
same,Proteinuria drop,"[1]; with compound 1 treatment, 30 mg orally twice daily",approximately 80%
same,Endocapillary hypercellularity/total,[2]; 2 months of therapy,0/36
same,CD68-positive cells/glomerulus,[2]; 2 months of therapy,2-3 cells/glomerulus
same,"Immunoflourescence microscopy, IgM",[2]; 2 months of therapy,neg
same,Endocapillary hypercellularity/total,[2]; 7 months of therapy,0/14
same,CD68-positive cells/glomerulus,[2]; 7 months of therapy,1-2 cells/glomerulus
same,"Immunoflourescence microscopy, IgM",[2]; 7 months of therapy,neg
same,glomerular inflammation,[2],reduction
same,glomerular inflammation,[2]; listed as Compound 1,reduced
same,glomerular endocapillary proliferation,[2]; on-treatment kidney biopsy compared to pre-treatment biopsy,clearance
same,glomerular inflammatory macrophages,"[2]; on-treatment/repeat biopsies compared to pre-treatment, CD68 staining (FIG. 2)",marked decrease; also recorded: reduction
same,glomerular endocapillary hypercellularity,"[2]; repeat biopsies, PAS staining after treatment (FIG. 2)",resolution; also recorded: reduction
